Laboratory results from patent US8697727B2, “N-substituted-heterocycloalkyloxybenzamide compounds and methods of use” (Rigel Pharmaceuticals, Inc., priority 2006, dated 2014).

test system: AMPK; assay: AMPK activation, enzyme-linked immunosorbent assay; type: cell-based
How it was run: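 AMPK activity in cells was measured by enzyme-linked immunosorbent assay as the relative concentration of phosphorylated acetyl-CoA carboxylase, which AMPK produces. From this, an EC50 for AMPK activation was determined for each compound. Ranges used: less than 1 μM, 1-10 μM, 10-20 μM, 20-50 μM, 50-100 μM, and >100 μM.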

| Compound | EC50 [nM] |
| --- | --- |
| Cc1ccc(CN2CCC(Oc3ccc(C(=O)NC4CCN(Cc5ccc(Cl)cc5)CC4)cc3F)CC2)cc1 [Compound 73, N-(1-(4-chlorobenzyl)piperidin-4-yl)-3-fluoro-4-(1-(4-methylbenzyl)piperidin-4-yloxy)benzamide] | < 1000 |
| O=C(NC1CCN(Cc2ccccc2)CC1)c1ccc(OC2CCN(Cc3cccc(C(F)(F)F)c3)CC2)c(F)c1 [Compound 59, N-(1-benzylpiperidin-4-yl)-3-fluoro-4-(1-(3-(trifluoromethyl)benzyl)piperidin-4-yloxy)benzamide] | < 1000 |
| Cc1ccc(CN2CCC(Oc3ccc(C(=O)NC4CCN(Cc5ccccc5)CC4)cc3F)CC2)cc1 [Compound 42, N-(1-benzylpiperidin-4-yl)-3-fluoro-4-(1-(4-methylbenzyl)piperidin-4-yloxy)benzamide] | < 1000 |
| O=C(NC1CCN(Cc2cccnc2)CC1)c1ccc(OC2CCN(c3ccc(C(F)(F)F)cc3)CC2)c(F)c1 [Compound 29, 3-fluoro-N-(1-(pyridin-3-ylmethyl)piperidin-4-yl)-4-(1-(4-(trifluoromethyl)phenyl)piperidin-4-yloxy)benzamide] | < 1000 |
| N#Cc1ccc(N2CCC(Oc3ccc(C(=O)NC4CCN(Cc5ccc(Cl)cc5)CC4)cc3F)CC2)cc1 [Compound 81, N-(1-(4-chlorobenzyl)piperidin-4-yl)-4-(1-(4-cyanophenyl)piperidin-4-yloxy)-3-fluorobenzamide] | < 1000 |
| O=C(c1ccc(OC2CCN(Cc3ccccc3)CC2)cc1)N1CCN(c2ccccc2)CC1 [Compound 103, (4-(1-benzylpiperidin-4-yloxy)phenyl)(4-phenylpiperazin-1-yl)methanone] | 20000 to 50000 |
| COc1ccc(CN2CCC(Oc3ccc(C(=O)NCCCNC(=O)OC(C)(C)C)cc3Cl)CC2)cc1 [Compound 97, tert-butyl 3-(3-chloro-4-(1-(4-methoxybenzyl)piperidin-4-yloxy)benzamido)propylcarbamate] | 1000 to 10000 |
| O=C(NC1CCN(Cc2ccccc2)CC1)c1ccc(OC2CCN(Cc3ccncc3)CC2)c(F)c1 [Compound 37, N-(1-benzylpiperidin-4-yl)-3-fluoro-4-(1-(pyridin-4-ylmethyl)piperidin-4-yloxy)benzamide] | < 1000 |
| CC(C)(C)OC(=O)N1CCC(NC(=O)c2ccc(OC3CCN(Cc4ccc(C#N)cc4)CC3)cc2)CC1 [Compound 78, tert-butyl 4-(4-(1-(4-cyanobenzyl)piperidin-4-yloxy)benzamido)piperidine-1-carboxylate] | < 1000 |
| CC(C)(C)C(=O)N1CCC(NC(=O)c2ccc(OC3CCN(c4ccc(C(F)(F)F)cc4)CC3)c(F)c2)CC1 [Compound 30, 3-fluoro-N-(1-pivaloylpiperidin-4-yl)-4-(1-(4-(trifluoromethyl)phenyl)piperidin-4-yloxy)benzamide] | < 1000 |
| O=C(NC1CCN(Cc2ccccc2)CC1)c1ccc(OC2CCN(Cc3ccc(F)c(F)c3)CC2)c(Cl)c1 [Compound 74, N-(1-benzylpiperidin-4-yl)-3-chloro-4-(1-(3,4-difluorobenzyl)piperidin-4-yloxy)benzamide] | < 1000 |
| O=C(NC1CCN(Cc2ccccc2)CC1)c1cc(Cl)c(OC2CCN(Cc3ccc(Cl)cc3)CC2)c(Cl)c1 [Compound 75, N-(1-benzylpiperidin-4-yl)-3,5-dichloro-4-(1-(4-chlorobenzyl)piperidin-4-yloxy)benzamide] | < 1000 |
| O=C(NC1CCN(Cc2ccccc2)CC1)c1ccc(OC2CCNCC2)c(Cl)c1 [Compound 93, N-(1-benzylpiperidin-4-yl)-3-chloro-4-(piperidin-4-yloxy)benzamide] | > 100000 |
| O=C(NC1CCN(Cc2ccccc2)CC1)c1ccc(OC2CCN(Cc3ccc(Cl)c(Cl)c3)CC2)c(Cl)c1 [Compound 84, N-(1-benzylpiperidin-4-yl)-3-chloro-4-(1-(3,4-dichlorobenzyl)piperidin-4-yloxy)benzamide] | < 1000 |
| O=C(NC1CCN(Cc2ccc(Cl)cc2)CC1)c1ccc(OC2CCN(Cc3ccc(Cl)c(Cl)c3)CC2)c(F)c1 [Compound 80, N-(1-(4-chlorobenzyl)piperidin-4-yl)-4-(1-(3,4-dichlorobenzyl)piperidin-4-yloxy)-3-fluorobenzamide] | < 1000 |
| CC(C)(C)c1ccc(CN2CCC(Oc3ccc(C(=O)NC4CCN(Cc5ccccc5)CC4)cc3Cl)CC2)cc1 [Compound 16, N-(1-benzylpiperidin-4-yl)-4-(1-(4-tert-butylbenzyl)piperidin-4-yloxy)-3-chlorobenzamide] | < 1000 |
| O=C(NC1CCN(Cc2ccccc2)CC1)c1cc(Cl)c(OC2CCN(Cc3ccc(F)c(F)c3)CC2)c(Cl)c1 [Compound 76, N-(1-benzylpiperidin-4-yl)-3,5-dichloro-4-(1-(3,4-difluorobenzyl)piperidin-4-yloxy)benzamide] | < 1000 |
| O=C(NC1CCN(Cc2ccccc2)CC1)c1ccc(OC2CCN(Cc3cccnc3)CC2)c(F)c1 [Compound 38, N-(1-benzylpiperidin-4-yl)-3-fluoro-4-(1-(pyridin-3-ylmethyl)piperidin-4-yloxy)benzamide] | 1000 to 10000 |
| COc1cc(C(=O)NC2CCN(Cc3ccccc3)CC2)ccc1OC1CCN(CCCc2ccccc2)CC1 [Compound 7, N-(1-benzylpiperidin-4-yl)-3-methoxy-4-(1-(3-phenylpropyl)piperidin-4-yloxy)benzamide] | < 1000 |

Now from value to compound:

| EC50 [nM] | Compound |
| --- | --- |
| > 100000 | Cn1cncc1CN1CCC(Oc2ccc(C(=O)NC3CCN(Cc4ccccc4)CC3)cc2)CC1 [Compound 4, N-(1-benzylpiperidin-4-yl)-4-(1-((l-methyl-1H-imidazol-5-yl)methyl)piperidin-4-yloxy)benzamide] |
| < 1000 | Cc1ccc(CN2CCC(Oc3ccc(C(=O)NC4CCN(Cc5ccc(F)cc5)CC4)cc3Cl)CC2)cc1 [Compound 68, 3-chloro-N-(1-(4-fluorobenzyl)piperidin-4-yl)-4-(1-(4-methylbenzyl)piperidin-4-yloxy)benzamide] |
| < 1000 | CC(C)(C)c1ccc(CN2CCC(Oc3ccc(C(=O)NC4CCN(Cc5ccccc5)CC4)cc3F)CC2)cc1 [Compound 20, N-(1-benzylpiperidin-4-yl)-3-fluoro-4-(1-(4-tert-butylbenzyl)piperidin-4-yloxy)benzamide] |
| 1000 to 10000 | CC(C)(C)OC(=O)N1CCC(Oc2ccc(C(=O)NC3CCN(Cc4ccccc4)CC3)cc2F)CC1 [Compound 92, tert-butyl 4-(4-(1-benzylpiperidin-4-ylcarbamoyl)-2-fluorophenoxy)piperidine-1-carboxylate] |
| < 1000 | CC(C)(C)OC(=O)N1CCC(NC(=O)c2ccc(OC3CCN(c4ccc(C(F)(F)F)cc4)CC3)c(F)c2)CC1 [Compound 26, tert-butyl 4-(3-fluoro-4-(1-(4-(trifluoromethyl)phenyl)piperidin-4-yloxy)benzamido)piperidine-1-carboxylate] |
| < 1000 | CC(C)(C)C(=O)N1CCC(Oc2ccc(C(=O)NC3CCN(Cc4ccccc4)CC3)cc2Cl)CC1 [Compound 91, N-(1-benzylpiperidin-4-yl)-3-chloro-4-(1-pivaloylpiperidin-4-yloxy)benzamide] |
| < 1000 | N#Cc1ccc(CN2CCC(Oc3ccc(C(=O)NC4CCN(Cc5ccccc5)CC4)cc3Cl)CC2)cc1 [Compound 67, N-(1-benzylpiperidin-4-yl)-3-chloro-4-(1-(4-cyanobenzyl)piperidin-4-yloxy)benzamide] |
| < 1000 | O=C(NC1CCN(Cc2ccccc2)CC1)c1ccc(OC2CCN(Cc3ccc(Cl)cc3)CC2)c(F)c1 [Compound 64, N-(1-benzylpiperidin-4-yl)-4-(1-(4-chlorobenzyl)piperidin-4-yloxy)-3-fluorobenzamide] |
| < 1000 | N#Cc1ccc(N2CCC(Oc3ccc(C(=O)NC4CCN(Cc5ccccc5)CC4)c(Cl)c3)CC2)cc1 [Compound 49, N-(1-benzylpiperidin-4-yl)-2-chloro-4-(1-(4-cyanophenyl)piperidin-4-yloxy)benzamide] |
| 10000 to 20000 | Cc1ccc(CN2CCC(Oc3ccc(C(=O)NCCCN4CCOCC4)cc3)CC2)cc1 [Compound 104, 4-(1-(4-methylbenzyl)piperidin-4-yloxy)-N-(3-morpholinopropyl)benzamide] |
| < 1000 | O=C(NC1CCN(C(=O)c2ccncc2)CC1)c1ccc(OC2CCN(c3ccc(C(F)(F)F)cc3)CC2)c(F)c1 [Compound 40, 3-fluoro-N-(1-isonicotinoylpiperidin-4-yl)-4-(1-(4-(trifluoromethyl)phenyl)piperidin-4-yloxy)benzamide] |
| 1000 to 10000 | O=C(NC1CCN(Cc2ccccc2)CC1)c1ccc(OC2CCN(Cc3ccccn3)CC2)c(F)c1 [Compound 39, N-(1-benzylpiperidin-4-yl)-3-fluoro-4-(1-(pyridin-2-ylmethyl)piperidin-4-yloxy)benzamide] |
| < 1000 | O=C(NC1CCN(Cc2ccccc2)CC1)c1ccc(OC2CCN(Cc3ccc(Cl)cc3)CC2)c(Cl)c1 [Compound 65, N-(1-benzylpiperidin-4-yl)-3-chloro-4-(1-(4-chlorobenzyl)piperidin-4-yloxy)benzamide] |
| < 1000 | O=C(NC1CCN(Cc2ccccc2)CC1)c1ccc(OC2CCN(c3ccc(C(F)(F)F)cc3)CC2)cc1Cl [Compound 47, N-(1-benzylpiperidin-4-yl)-2-chloro-4-(1-(4-(trifluoromethyl)phenyl)piperidin-4-yloxy)benzamide] |
| < 1000 | N#Cc1ccc(CN2CCC(Oc3ccc(C(=O)NC4CCN(Cc5ccccc5)CC4)c(Cl)c3)CC2)cc1 [Compound 51, N-(1-benzylpiperidin-4-yl)-2-chloro-4-(1-(4-cyanobenzyl)piperidin-4-yloxy)benzamide] |
| < 1000 | N#Cc1ccc(CN2CCC(Oc3ccc(C(=O)NC4CCN(Cc5ccncc5)CC4)cc3)CC2)cc1 [Compound 83, 4-(1-(4-cyanobenzyl)piperidin-4-yloxy)-N-(1-(pyridin-4-ylmethyl)piperidin-4-yl)benzamide] |
| < 1000 | N#Cc1ccc(CN2CCC(Oc3ccc(C(=O)NC4CCN(Cc5ccc(Cl)cc5)CC4)cc3F)CC2)cc1 [Compound 70, N-(1-(4-chlorobenzyl)piperidin-4-yl)-4-(1-(4-cyanobenzyl)piperidin-4-yloxy)-3-fluorobenzamide] |
